Reference: patent US20230067064A1, “METHODS AND COMPOSITIONS FOR MODULATING SPLICING” (SkyHawk Therapeutics, Inc., priority 2019, published 2023)
Where two headings read alike, the source gives them in different places.

What was measured:
SMN protein = SMN protein assay, Mesoscale Discovery (MSD); assay type: cell-based, human; details: SMA patient fibroblasts (GM03813), 48 hours, average, read-out: SMN2 Potency - Protein: Protein FL EC50 (average)
Procedure: Compounds are tested on spinal muscular atrophy (SMA) patient fibroblasts (GM03813, Coriell) at doses ranging from 2.5 μM to 0.6 nM. 7000 cells/well are seeded in 96-well plates. Compounds are incubated for 48 hours and the cells were lysed with 100 μL of lysis buffer. 20 μL of lysate is used for SMN protein measurement by Mesoscale Discovery (MSD) assay developed by PharmOptima (Michigan). A standard curve prepared with SMN protein ranging from 1 μg/ml to 19.5 pg/ml is used in each MSD plate to calculate the absolute SMN protein amount in each sample.

[1] = system: cryptic exon within intron 49 of the Huntingtin (HTT) transcripts, GM04724 (CAG 70/20) Huntington's disease patient lymphoblasts; assay: Quantitative splicing assay (HTT); assay type: cell-based, human; details: average
Procedure: GM04724 (CAG 70/20) Huntington's disease patient lymphoblasts (Coriell) are plated in 96-well v-bottom plates at 50,000 cells/well. Immediately after plating, cells are dosed with compound for 24 h at concentrations ranging from 2.5 uM to 0.15 nM (0.1% DMSO). Treated cells are lysed and cDNA synthesized using the Fast Advanced Cells-to-Ct kit (Thermofisher A35378) according to the manufacturer's instructions. 2 uL of each cDNA are used in qPCR reactions to confirm the compound-induced inclusion of a cryptic exon within intron 49 of the Huntingtin (HTT) transcripts. The qPCR reactions are prepared in 384-well plates in 10 uL volume, using TaqMan™ Fast Advanced Master Mix [ThermoFisher; 4444965] with primers and probes shown in the table below. Reactions are run in a Quant Studio 6 qPCR instrument with default settings.

[2] = system: SMN FL and SMN Δ7 mRNA, spinal muscular atrophy (SMA) patient fibroblasts (GM03813); assay: Quantitative splicing assay (SMN); assay type: cell-based, human; details: 24 h, average; for IC50: read-out: SMN2 Potency - Splicing: Splicing D7 IC50 (average); for EC50: read-out: SMN2 Potency - Splicing: Splicing FL EC50 (average)
Procedure: Spinal muscular atrophy (SMA) patient fibroblasts (GM03813, Coriell) are plated in 96-well plates at 50,000 cells/well. […] Treated cells are lysed and cDNA synthesized using the Fast Advanced Cells-to-Ct kit (Thermofisher A35378) according to the manufacturer's instructions. 2 μL of each cDNA are used in qPCR reactions. […] Reactions are run in a Quant Studio 6 qPCR instrument with default settings.

mHTT protein = mHTT protein assay, 2B7-MW1 Mesoscale Discovery (MSD); assay type: cell-based, human; details: GM04724 lymphoblast cells, 48 hours, 2B7-MW1 MSD; average; read-out: HTT Potency - Protein & Cytotoxicity: EC50 mHTT (average)
Procedure: Compounds are tested on GM04724 (CAG 70/20) Huntington's disease patient lymphoblast cells at doses ranging from 10 μM to 0.6 nM. 4,500 cells/well are seeded in 384 well plates. One plate replica is carried out for parallel viability testing by CellTiter Glo (CTG). Compounds are incubated for 48 hours. mHTT protein levels are assessed by the 2B7-MW1 assay via Mesoscale Discovery (MSD) as previously reported (Macdonald et al., 2014). The antibody pair is comprised of previously characterized monoclonals (2B7 and MW1) interrogating two regions for HTT conformation and biological properties: the N17 domain and the polyQ domain (Baldo et al., 2012; Ko et., 2001). 2B7-MW1 is dependent on subject/animal specific levels of HTT at the time of treatment. 2B7-MW1 is dependent on polyQ expansion (e.g., the higher the expansion the higher the signal) and on mHTT size (e.g., a similar polyQ will give higher signal with smaller HTT size). The viability readout is carried out by CTG according to the manufacturer's instructions. The results are show in Table A-10.

[3] = system: MDR1-MDCK cell monolayers; assay: MDCK-MDR1 permeability assay, blood-brain-barrier (BBB) penetration potential; assay type: in vitro ADME; details: for General MDCK-MDR1: Efflux: efflux ratio
Procedure: (§1) Each determination is performed in duplicate. […] Analytical conditions are outlined below.
(§2) Papp=(dCr/dt)×Vr/(A×CA) (1)

MDR1 = assay: as above; assay type: in vitro ADME; details: dog, MDCK-MDR1, pH 7.4
Procedure: as §1, §2

[4] = read-out: HTT Potency - Splicing: E49-50 EC50 (average)
[5] = read-out: HTT Potency - Splicing: E49b EC50 (average)
[6] = dog, MDCK-MDR1, 120 min, 5 μM, pH 7.4

Row | Structure (SMILES) | EC50 (SMN protein) | EC50 [1, 4] | EC50 [1, 5] | IC50 [2] | EC50 [2] | EC50 (mHTT protein) | General MDCK-MDR1: % Recov A-B ([3]; A-B direction) | General MDCK-MDR1: % Recov B-A ([3]; B-A direction) | General MDCK-MDR1: Efflux [3] | Papp A→B at 120 min, 5 μM (MDR1) | Papp B→A at 120 min, 5 μM (MDR1) | efflux ratio at 120 min, 5 μM (MDR1) | General MDCK-MDR1: % Recov A-B [3, 6] | General MDCK-MDR1: % Recov B-A [3, 6]
1 | C[C@]12CC[C@H](C[C@@H](Oc3ccc(-c4ccc(-n5ccnc5)cc4O)nn3)C1)N2 (single isomer, unassigned; ent1) [303-Ent1] | 0.01 to 15 nM | 16 to 50 nM | 16 to 50 nM | 16 to 50 nM | 101 to 500 nM | 0.01 to 15 nM | 90% | 90% | 40 | – | – | – | – | –
2 | CN(c1ccc(-c2ccc(-n3ccnc3)cc2O)nn1)[C@@H]1C[C@H]2CC[C@@](C)(C1)N2 (single isomer, unassigned; ent1) [304-Ent1] | 0.01 to 15 nM | 0.01 to 15 nM | 0.01 to 15 nM | – | – | 0.01 to 15 nM | 94% | 90% | 137 | – | – | – | – | –
3 | C[C@]12CC[C@H](C[C@@H](Oc3ccc(-c4ccc(-c5cn[nH]c5)cc4O)nn3)C1)N2 (single isomer, unassigned; ent1) [309-Ent1] | 0.01 to 15 nM | 0.01 to 15 nM | 0.01 to 15 nM | 0.01 to 15 nM | – | 0.01 to 15 nM | 93% | 93% | 68 | – | – | – | – | –
4 | COc1cc(-c2ccc(-c3ccc(N(C)[C@@H]4C[C@H]5CC[C@@](C)(C4)N5)nn3)c(O)c2)cnn1 (single isomer, unassigned; ent1) [310-Ent1] | 501 to 10000 nM | – | – | – | – | 0.01 to 15 nM | 94% | 89% | 130 | – | – | – | – | –
5 | COc1cc(-c2ccc(-c3ccc(N(C)[C@@H]4C[C@H]5CCC[C@@](C)(C4)N5)nn3)c(O)c2)cnn1 (single isomer, unassigned; ent1) [311-Ent1] | 16 to 50 nM | – | – | – | – | 0.01 to 15 nM | 93% | 96% | 180 | – | – | – | – | –
6 | COCC12CCC(CC(N(C)c3ccc(-c4cc(F)c(-n5ccnc5)cc4O)nn3)C1)N2 (single isomer, unassigned; ent1) [315-Ent1] | 0.01 to 15 nM | 0.01 to 15 nM | 0.01 to 15 nM | 0.01 to 15 nM | 0.01 to 15 nM | 0.01 to 15 nM | 109% | 108% | 103 | – | – | – | – | –
7 | COCC12CCCC(CC(Oc3ccc(-c4ccc(-c5cnn(C)c5)cc4O)nn3)C1)N2 (single isomer, unassigned; ent1) [316-Ent1] | 0.01 to 15 nM | 16 to 50 nM | 16 to 50 nM | 16 to 50 nM | 51 to 100 nM | 0.01 to 15 nM | 84% | 96% | 43 | – | – | – | – | –
8 | CN(c1ccc(-c2ccc(-c3cnn(C)c3)cc2O)nn1)C1CC2CCC(C)(N2)C1F (single isomer, unassigned; ent1) [317-Ent1] | 0.01 to 15 nM | 0.01 to 15 nM | 0.01 to 15 nM | 0.01 to 15 nM | 0.01 to 15 nM | 0.01 to 15 nM | 73% | 98% | 17 | – | – | – | – | –
9 | CC12CCC(CC(Oc3ccc(-c4ccc(-n5ccnc5)cc4O)nn3)C1)N2 (single isomer, unassigned; ent2) [303-Ent2] | 0.01 to 15 nM | 0.01 to 15 nM | 0.01 to 15 nM | 16 to 50 nM | 16 to 50 nM | 0.01 to 15 nM | 86% | 88% | 62 | – | – | – | – | –
10 | CN(c1ccc(-c2ccc(-n3ccnc3)cc2O)nn1)C1CC2CCC(C)(C1)N2 (single isomer, unassigned; ent2) [304-Ent2] | 0.01 to 15 nM | 0.01 to 15 nM | 0.01 to 15 nM | – | – | 0.01 to 15 nM | 87% | 83% | 109 | – | – | – | – | –
11 | CC12CCC(CC(Oc3ccc(-c4ccc(-c5cn[nH]c5)cc4O)nn3)C1)N2 (single isomer, unassigned; ent2) [309-Ent2] | – | 0.01 to 15 nM | 0.01 to 15 nM | – | – | 0.01 to 15 nM | 91% | 86% | 50 | – | – | – | – | –
12 | COc1cc(-c2ccc(-c3ccc(N(C)C4CC5CCC(C)(C4)N5)nn3)c(O)c2)cnn1 (single isomer, unassigned; ent2) [310-Ent2] | 16 to 50 nM | – | – | – | – | 0.01 to 15 nM | 89% | 80% | 133 | – | – | – | – | –
13 | COc1cc(-c2ccc(-c3ccc(N(C)C4CC5CCCC(C)(C4)N5)nn3)c(O)c2)cnn1 (single isomer, unassigned; ent2) [311-Ent2] | 16 to 50 nM | – | – | – | – | 0.01 to 15 nM | 84% | 83% | 137 | – | – | – | – | –
14 | COCC12CCC(CC(N(C)c3ccc(-c4cc(F)c(-n5ccnc5)cc4O)nn3)C1)N2 (single isomer, unassigned; ent2) [315-Ent2] | – | 0.01 to 15 nM | 0.01 to 15 nM | – | – | 0.01 to 15 nM | 104% | 107% | 117 | – | – | – | – | –
15 | COCC12CCCC(CC(Oc3ccc(-c4ccc(-c5cnn(C)c5)cc4O)nn3)C1)N2 (single isomer, unassigned; ent2) [316-Ent2] | 0.01 to 15 nM | 16 to 50 nM | 16 to 50 nM | 16 to 50 nM | 51 to 100 nM | 16 to 50 nM | 77% | 106% | 40 | – | – | – | – | –
16 | CN(c1ccc(-c2ccc(-c3cnn(C)c3)cc2O)nn1)C1CC2(C)CCC(N2)C1F (single isomer, unassigned; ent2) [318-Ent2] | 0.01 to 15 nM | – | – | – | – | 0.01 to 15 nM | – | – | – | – | – | – | – | –
17 | CN1C2CC[C@@H]1C[C@@H](Oc1ccc(-c3ccc(-n4ccnc4)cc3O)nn1)C2 [compound 301] | 501 to 10000 nM | – | – | – | – | – | – | – | – | 2.34 ×10⁻⁶ cm/s | 48.2 ×10⁻⁶ cm/s | 21 | 83% | 91%
18 | CN1[C@@H]2CCC[C@H]1C[C@H](Oc1ccc(-c3ccc(-n4ccnc4)cc3O)nn1)C2 [compound 302] | 51 to 100 nM | – | – | – | – | 501 to 10000 nM | – | – | – | 3.09 ×10⁻⁶ cm/s | 55.8 ×10⁻⁶ cm/s | 18 | 90% | 110%
19 | CN1[C@@H]2CCC[C@H]1C[C@H](Oc1ccc(-c3ccc(-c4cn[nH]c4)cc3O)nn1)C2 [compound 305] | 501 to 10000 nM | – | – | – | – | 51 to 100 nM | – | – | – | – | – | – | – | –
20 | CN1[C@@H]2CC[C@H]1C[C@H](Oc1ccc(-c3ccc(-c4cn[nH]c4)cc3O)nn1)C2 [compound 306] | 501 to 10000 nM | – | – | – | – | 101 to 500 nM | – | – | – | 1.19 ×10⁻⁶ cm/s | 55.4 ×10⁻⁶ cm/s | 47 | 95% | 102%
